Patent publication US5906922A, “Delivery of nucleic acids” (Commonwealth Scientific and Industrial Research Organisation, priority 1994, dated 1999)
Where a SMILES comes first, the peptide text is derived from it. The star is where a group is joined. NHC(CH2O-Palmitoyl)3 = CCCCCCCCCCCCCCCC(=O)OCC(COC(=O)CCCCCCCCCCCCCCC)(COC(=O)CCCCCCCCCCCCCCC)N*; X4 = CCCCCCCCCCCC(=O)OCC(CO)(COC(=O)CCCCCCCCCCC)N*; NHC(CH2OH)3 = OCC(CO)(CO)N*

Legend:
[1] = system: Cos 1 cells; test: Transfection of pSVLCAT, CAT assay, Cos 1; type: cell-based, African Green Monkey; details: for transfection, number of palmitates: R1-R4 experiment a, Cos 1, K2 A linker
Description: To test the transfection properties of the lead compound K3ATP3 (VerafectinA3), whole uncut plasmid carrying the gene encoding CAT (chloramphenicol acetyl transferase) under the control of the SV40 late promoter, pSVLCAT (Cameron, F. H. and Jennings, P. A. (1989) PNAS 86, 9139-9143) was mixed with the test agent and put on Cos 1 cells under various conditions. After 48 hours of culture the level of secreted CAT was assayed from the culture medium.
Solution I: 1 μg Plasmid DNA in 500 μl Dulbeccos Modified Eagles Medium (DME)
Solution II: 0-20 μl VerafectinA3 (2.5 mg/ml 25% DMSO) in 500 μl DME, Vortex
Combine solution I and II, vortex briefly and incubate at room temperature for 10 min.
Add mix to washed cells in 60 mm tissue culture dishes (seeded 0.5×10^6 /dish previous day) for 6 hrs at 37° C., 5% C02. Add 2 ml DME+10% FCS for remainder of 48 hrs. Assay CAT levels in tissue culture medium (Sleigh, M. J. (1986) Anal. Biochem. 156.251-256).
a--Compare VerafectinA3 dissolved in DMSO or ethanol.
b--Compare VerafectinA3 on cells 6 hrs to overnight. VerafectinA3 at 10 mg/ml in 100% solvent was diluted to 2.5 mg/ml with water.
Transfection was carried out as for experiment 1. VerafectinA3 was left in contact with the cells for varying times.
Protocol was the same for the Verafectins as described above. Lipofectamine protocol was according to manufacturers instructions. Cos 1 cells were seeded at 5×10^5 /60 mm dish and adhered overnight in DME with 10% FCS.
Solution A: 0.5 μg pSVLCAT/60 mm dish.
Solution B: Lipofectamine 10 and 15 μl 2 mg/ml (mixed formulation 3:1 with DOPE).
OR; VerafectinA3 and VerafectinG2 20 μl 2 mM (2.8 and 2.3 mg/ml respectively) stock.
OR; VerafectinG2 was also tested with an equimolar amount of DOPE. VerafectinG2 and DOPE were mixed in DDME and vortexed for 30 seconds before use. Solutions A and B were combined before overlaying on washed cells.
The serum free incubation period in the presence of test agents and DNA was 6 hrs, then 1 ml DME+10% FCS was added. At 24 hours medium was changed to 2 ml fresh DME+10% FCS until harvest at 48 hrs.
(§1) Cell lines Cos 1 or CHO were transfected with 0.5 μg of pSVLCAT or 2 μg of pPGKlacZ plasmid using a range of concentrations of each transfection compound. The optimal concentration of compound, that is the concentration giving the highest level of CAT at 48 hours or the greatest percentage of lac z (β-galactosidase) staining cells at 24 hours was used to collate data for Table 1. As all compounds were not tested in a single experiment, absolute figures indicating transfection were not used. Rather, symbols are used to indicate the transfection efficiency relative to Lipofectamine (BRL), which was included as a control in all experiments. Table 1 thus indicates the relative efficiencies of a number of compounds in mediating the transfection of at least one cell type.
(§2) All test lipopeptide reagents were originally dissolved at 10 mM in 75% DMSO, and subsequently diluted with water to make a 2 mM stock stored at 4° C. Volumes of 2 mM stock lipopeptide ranging from 2 μl to 15 μl were diluted in 500 μl of DDME. 1 μg of plasmid pSVLCAT was separately diluted in 500 μl of DDME. Solutions were combined for 10-20 min at room temperature before adding to 500 μl of DDME in 60 mm dishes of subconfluent CHO cells (2×10^5 day-1) or Cos 1 cells (5×10^5 day-1); washed free of serum with DDME.
(§3) Cells were incubated for 6 hrs under standard conditions of 37° C. and 5% CO2 for 6 hours. 1.5 ml of DME/Hams+10% FCS (CHO) or DME+10% FCS (Cos 1) was added to the cells for overnight incubation. Fresh DME/Hams+10% FCS or DME+10% FCS was used to replace the medium for a further 24 hours prior to harvest. Cell lysates were prepared and assayed for CAT activity as described above. For Cos 1 cells, culture supernatants were assayed for CAT activity.
For transfection of pSVLCAT and subsequent assay of CAT enzyme, experiments "a" and "b" were carried out as described above.

[2] = system: CHO cells; test: Transfection of pSVLCAT, CAT assay, CHO; type: cell-based, Chinese Hamster; details: CHO
Description: Protocol was the same for Verafectin and Transfectam (see above) with the exception that 0.5 μg of pSVLCAT DNA was used /60 mm dish.
Lipofectamine protocol was according to manufacturer's instructions. 0.5 μg pSVLCAT/60 mm dish. CHO cells seeded 1×10^5 /60 mm dish and adhered overnight in DME/Hams medium with 10% FCS.
Transfectam 5 or 10 μl 1mg/400 μl stock solution.
Lipofectamine 5 or 10 μl 2 mg/ml (mixed formulation 3:1 with DOPE). VerafectinA3 (K3ATP3) and VerafectinG2 (K3G[Glycine]TP2) each at 5, 10 and 15 μl of 2 mM (2.8 and 2.3 mg/ml respectively) stock.
The serum free incubation period in the presence of test agents and DNA was 6 hours, then 1 ml DME/Hams+10% FCS was added. At 24 hrs the medium was changed to 2 ml of fresh DME/Hams+10% FCS until harvest at 48 hrs.
as §1, §2, §3
a. Using the standard transfection procedure described above, and 1 μg plasmid pSVLCAT, these formulations were tested on CHO cells at a single concentration equivalent to 10 μl of Verafectin A2 (2 mM) per sample and compared to unformulated compound and Lipofectamine in the same cell type. CAT production was assayed 48 hours after transfection.

[3] = system: Cos 1 cells; test: β-gal microtitre plate transfection assay, Cos 1; type: cell-based, African Green Monkey
Description: For experiment "c", a plasmid pPGKlaczNLS encoding β-galactosidase under the control of the mouse PGK promoter (kind gift from G.Hannan) or pSVGAL which utilises the SV40 early promoter (Sleigh, M. J. and Lockett, T. J. (1985). EMBO J. 4:3831-3837),was transfected. This experiment and assay were modified from Feigner et al J. Biol Chem. 269(4) 2550-2561 1994. This protocol allows the simultaneous assessment of 72 different combinations and concentrations of DNA and test agent in a microtitre tray. […] Cytotoxicity was assessed using alamar blue, and a sample graph is shown for experiment a.
Compounds were tested for their ability to transfect either the CAT or β-gal gene carried on plasmids, and assayed as described above.
(§4) The ratio of [lipid]/[DNA] at which that maximum was achieved is shown. Experiments shown were carried out in Cos 1 cells, as described above. MTS OD is a measure of relative viabilility of the cells exposed to the different agents, a higher value indicates greater cell viability. * These points were taken from a separate experiment and some slight variation between absolute numbers should be expected between experiments.
Each of these compounds was tested for transfection ability and cytotoxicity on standard cell lines using standard conditions as described above.
(§5) The ratio of [lipid]/[DNA] at which that maximum was achieved is shown in brackets for the two different cell types in the following order; (Cos 1) (CHO). Experiments shown were carried out in Cos 1 cells, as described above. Viability was measured with the dye alamar blue . # Denotes compounds tested in a separate experiment. * Viability in this experiment was determined with MTS. OD is a measure of relative viability of the cells exposed to the different agents, and as with alamar blue, a higher value indicates greater cell viability.

[4] = system: Cos 1 cells; type: cell-based, African Green Monkey
Description: Relative levels of cytotoxicity were also assayed in subsequent experiments using the dye MTS, marketed as Cell titre 96 Aqueous (Promega).
as §4, §5

CCCCCCCCCCCCCCCC(=O)OCC(CO)(CO)NC(=O)[C@H](C)NC(=O)[C@H](CCCCN)NC(=O)[C@@H](N)CCCCN [K2ATP1]
transfection, number of palmitates [1]: very inefficient

CCCCCCCCCCCCCCCC(=O)OCC(COC(=O)CCCCCCCCCCCCCCC)(COC(=O)CCCCCCCCCCCCCCC)NC(=O)[C@H](C)NC(=O)[C@H](CCCCN)NC(=O)[C@H](CCCCN)NC(=O)[C@H](CCCCN)NC(=O)[C@H](CCCCN)NC(=O)[C@@H](N)CCCCN [K5ATP3] (H-KKKKKA-{NHC(CH2O-Palmitoyl)3})
CAT activity (mean) ([2]; "x" peptide experiment a, 25 μl lysate, 20 min assay at 37° C., optimal level): 1785 cpm
mean level of CAT activity ([2]; "x" peptide experiment c, 2 hours incubation of 20 μl lysate): 6363

CCCCCCCCCCCC(=O)OCC(CO)(COC(=O)CCCCCCCCCCC)NC(=O)[C@H](C)NC(=O)[C@H](CCCCN)NC(=O)[C@H](CCCCN)NC(=O)[C@@H](N)CCCCN [K3ATL2] (H-KKKA-X4)
ratio [lipid]/[DNA] at which maximum was achieved ([3]; Table 2, Cos 1): 0.69
units β-gal ([3]; Table 2, Cos 1, highest reading of 72 conditions): 1.06 × 10^-5 units
ratio [lipid]/[DNA] at which maximum was achieved ([3]; Table 3, Cos 1): .69
β-gal (Cos 1) ([3]; Table 3, Cos 1, highest reading of 72 conditions): 1.06 × 10^-5
MTS OD490-655 [4]: 1.554
Viability (Cos 1) [4]: 1.55

C[C@H](NC(=O)[C@H](CCCCN)NC(=O)[C@H](CCCCN)NC(=O)[C@@H](N)CCCCN)C(=O)NC(CO)(CO)CO [K3ATP0] (H-KKKA-{NHC(CH2OH)3})
Transfection (CAT) ([1]; Table 1, Cos 1, optimised level of agent): -

CCCCCCCCCCCCCCCC(=O)OCC(COC(=O)CCCCCCCCCCCCCCC)(COC(=O)CCCCCCCCCCCCCCC)NC(=O)[C@H](C)NC(=O)[C@H](CCCCN)NC(=O)[C@@H](N)CCCCN [K2ATP3]
transfection, number of palmitates [1]: high levels of transfection

CCCCCCCCCCCCCCCC(=O)OCC(CO)(COC(=O)CCCCCCCCCCCCCCC)NC(=O)[C@H](C)NC(=O)[C@@H](N)CCCCN [K1ATP2]
CAT activity (mean) ([1]; "x" peptide experiment b, Cos 1, 25 μl lysate, 135 min 37° C.): 12670 cpm

CCCCCCCCCCCCCCCC(=O)OCC(CO)(COC(=O)CCCCCCCCCCCCCCC)NC(=O)[C@H](CCCCN)NC(=O)[C@H](CCCCN)NC(=O)[C@@H](N)CCCCN [K2KTP2]
transfection, dipalmitate versus tripalmitate ([1]; R1-R4 experiment d, Cos 1, lysine linker): significantly less active than the tripalmitate molecule
